SMILES | melting point
N[C@H](C(=O)N1CC(F)(F)C(F)(F)C1)C1CCCCC1 [Example 3, (S)-2-Amino-2-cyclohexyl-1-(3,3,4,4-tetrafluoro-pyrrolidin-1-yl)-ethanone] | 278 °C
CC(C)[C@H](N)C(=O)N1CC(F)(F)C(F)(F)C1 [Example 5, (S)-2-Amino-3-methyl-1-(3,3,4,4-tetrafluoro-pyrrolidin-1-yl)-butan-1-one] | 234 to 238 °C

Source: patent US20040002609A1, “Synthesis of 3,3,4,4-tetrafluoropyrrolidine and novel dipeptidyl peptidase-IV inhibitor compounds” (Pfizer Inc., priority 2002, published 2004)
